# Experimental data reported in patent US8815875B2 (Merck Sharp & Dohme Corp., priority 2008, dated 2014).
# Biological target: FABP4 (Homo sapiens, UniProt P15090)
# Assay: TdF (Temperature Dependence Fluorescence) assay, thermal shift, FABP4
# Assay type: binding
# Description: TdF (Temperature Dependence Fluorescence) Assay for FABP3 and FABP4
# The TdF assay was mainly conducted in the 96-well based CHROMO-4 real time fluorescence plate reader (BioRad). The Sypro Orange (Sigma-Aldrich), environmentally sensitive fluorescence dye, was used to monitor the protein folding-unfolding transition. Protein-ligand binding was gauged by the change (or shift) in the unfolding transition temperature (ΔTm) acquired at protein alone with respect to protein in the presence of ligand of interest.
# The compound of interest was first prepared in DMSO stock (typical concentration: 10 mM). […] Final percentage of DMSO resided in the sample was 2%. The sample plate was heated from 30° C. to 90° C. with thermal ramping rate of 1° C./min. The fluorescence signals were acquired with excitation and emission wavelengths centered at 490 and 560 nm respectively. The instrument thermal stability was ±0.2° C.
# Theoretical basis for TdF-based ligand binding affinity constant
# In brief, the binding constant of the ligand at the Tm is expressed as below:
# [formula] where To is the midpoint of unfolding for unliganded protein and Tm is the midpoint of unfolding in presence of ligand. [LTm] is free ligand at Tm. The ΔHu and ΔCpu are the enthalpy of unfolding and heat capacity change of unfolding for the protein respectively.
# The nonlinear regression fitting in general readily reaches convergence by properly constraining the initial values for the fitting parameters (e.g. the initial “guess” for the ΔHu was constrained to 120 kcal/mol; initial Yn and mn were set to 1 and zero to best represent the melting curve along the low temperature region; negative slope of −0.5 was initially chosen for mu; initial Tm was also constrained to 50° C.).
# [formula] (see Brandts et al and Mayhood et al, shown above) where ΔHL (T) is the van't Hoff enthalpy of ligand binding at temperature T and ΔCpL is the heat capacity upon ligand binding. For simplicity, the ΔCpL and ΔHL (T) were set to zero and −7 kcal/mol respectively. […] TdCD (Temperature-dependent Circular Dichroism) Assay for FABP3/4/5
# Sequence of FABP4 (P15090 whole entry, species assumed): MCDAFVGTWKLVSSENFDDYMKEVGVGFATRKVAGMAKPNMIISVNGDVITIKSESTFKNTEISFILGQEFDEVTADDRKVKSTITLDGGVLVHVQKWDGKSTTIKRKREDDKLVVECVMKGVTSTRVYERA
FABP4 TdF Kd,Kd,SMILES
B (0.5 ≦ B < 0.001 μM),,"O=C(NCC1(O)CCCCC1)c1c(Cl)cccc1OCc1cc(=O)n2nc(-c3ccccc3)nc2[nH]1 [47-13, 2-chloro-N-((1-hydroxycyclohexyl)methyl)-6-((7-oxo-2-phenyl-4,7-dihydro-[1,2,4]triazolo[1,5-a]pyrimidin-5-yl)methoxy)benzamide]"
,≤ 1 nM,O=C(NCC1(c2ccc(Cl)cc2)CCC1)C1(OCc2cc(=O)n3nc(-c4ccccc4)nc3[nH]2)CCCCC1 [48-65]
,> 500 nM,O=C(O)c1c(Cl)cccc1OCc1cc(=O)n2nc(C(F)(F)F)nc2[nH]1 [53-3]
,≤ 1 nM,O=c1cc(CSc2cccc(Cl)c2C2CCC2)[nH]c2nc(-c3ccccc3)nn12 [52-5]
B (0.5 ≦ B < 0.001 μM),,O=C(NCC1CC1)c1ccccc1OCc1cc(=O)n2nc(-c3ccccc3)nc2[nH]1 [47-55]
,> 500 nM,O=C(O)C1(OCc2cc(=O)n3nc(C(F)(F)F)nc3[nH]2)CCCCC1 [54-1]
,> 500 nM,Cc1c(Cl)cccc1OCc1cc(=O)n2nc(-c3ccccc3Cl)nc2[nH]1 [25-7]
B (0.5 ≦ B < 0.001 μM),,O=C(NCC1(CO)CCC1)c1ccccc1OCc1cc(=O)n2nc(-c3ccccc3)nc2[nH]1 [47-58]
,≤ 1 nM,O=C(NCC1(CO)CCCC1)C1(OCc2[nH]c3nc(-c4ccccc4)nn3c(=O)c2Cl)CCCCC1 [50-5]
B (0.5 ≦ B < 0.001 μM),,"O=C(NCC1(CO)COC1)c1c(Cl)cccc1OCc1cc(=O)n2nc(-c3ccccc3)nc2[nH]1 [47-34, 2-chloro-N-((3-(hydroxymethyl)oxetan-3-yl)methyl)-6-((7-oxo-2-phenyl-4,7-dihydro-[1,2,4]triazolo[1,5-a]pyrimidin-5-yl)methoxy)benzamide]"
B (0.5 ≦ B < 0.001 μM),,O=C(NC1(CO)CCCCC1)C1(OCc2cc(=O)n3nc(-c4ccccc4)nc3[nH]2)CCCCC1 [48-67]
,≤ 1 nM,"COc1ccccc1C1(CNC(=O)C2(OCc3cc(=O)n4nc(-c5ccccc5)nc4[nH]3)CCCCC2)CC1 [48-12, N-((1-(2-methoxyphenyl)cyclopropyl)methyl)-1-((7-oxo-2-phenyl-4,7-dihydro-[1,2,4]triazolo[1,5-a]pyrimidin-5-yl)methoxy)cyclohexanecarboxamide]"
B (0.5 ≦ B < 0.001 μM),,CC1(C)CN(C(=O)C2(OCc3cc(=O)n4nc(-c5ccccc5)nc4[nH]3)CCCCC2)CCO1 [48-25]
,> 500 nM,O=C(O)c1ccccc1OCc1cc(=O)n2nc(-c3ccccc3)nc2[nH]1 [47-53]
,> 500 nM,O=C(NC1(CO)CCOCC1)C1(OCc2cc(=O)n3nc(-c4ccccc4)nc3[nH]2)CCCCC1 [48-69]
B (0.5 ≦ B < 0.001 μM),,Cc1c(Cl)cccc1OCc1cc(=O)n2nc(-c3ccccn3)nc2[nH]1 [25-3]
B (0.5 ≦ B < 0.001 μM),,O=C(NCC1CCC1)C1(OCc2cc(=O)n3nc(-c4ccccc4)nc3[nH]2)CCCCC1 [48-20]
B (0.5 ≦ B < 0.001 μM),,COc1ccccc1C1(CNC(=O)c2c(Cl)cccc2OCc2cc(=O)n3nc(-c4ccccc4)nc3[nH]2)CCC1 [47-23]
,≤ 1 nM,Cc1cc(N)n(C(=O)c2c(Cl)cccc2OCc2cc(=O)n3nc(-c4ccccc4)nc3[nH]2)n1 [47-51]
,> 500 nM,CC1(NC(=O)C2(OCc3cc(=O)n4nc(-c5ccccc5)nc4[nH]3)CCCCC2)COC1 [48-43]
,> 500 nM,CN1CCN(CCNCc2c(Cl)cccc2OCc2cc(=O)n3nc(-c4ccccc4)nc3[nH]2)CC1 [33-3]
,> 500 nM,"O=C(O)C1(OCc2cc(=O)n3nc(-c4ccccc4)nc3[nH]2)CCCCC1 [48-2, 1-((7-oxo-2-phenyl-4,7-dihydro-[1,2,4]triazolo[1,5-a]pyrimidin-5-yl)methoxy)cyclohexanecarboxylic acid]"
B (0.5 ≦ B < 0.001 μM),,O=c1cc(COc2cccc(Cl)c2CC2CC2)[nH]c2nc(-c3ccccc3)nn12 [43-2]
,≤ 1 nM,O=C(NCC1(CO)CCC1)C1(OCc2cc(=O)n3nc(-c4ccccc4)nc3[nH]2)CCCCC1 [48-11]
B (0.5 ≦ B < 0.001 μM),,Cc1cc(N)nn1C(=O)c1c(Cl)cccc1OCc1cc(=O)n2nc(-c3ccccc3)nc2[nH]1 [47-52]
B (0.5 ≦ B < 0.001 μM),,O=C(NCC1(c2ccccc2Cl)CCC1)C1(OCc2cc(=O)n3nc(-c4ccccc4)nc3[nH]2)CCCCC1 [48-34]
B (0.5 ≦ B < 0.001 μM),,N#Cc1cccc(OCc2cc(=O)n3nc(-c4ccccc4)nc3[nH]2)c1Cl [45-2]
,> 500 nM,"O=C(c1c(Cl)cccc1OCc1cc(=O)n2nc(-c3ccccc3)nc2[nH]1)N1CCS(=O)(=O)CC1 [47-6, 4-[2-chloro-6-[(4,7-dihydro-7-oxo-2-phenyl[1,2,4]triazolo[1,5-a]pyrimidin-5-yl)methoxy]benzoyl]thiomorpholine, 1,1-dioxide]"
B (0.5 ≦ B < 0.001 μM),,COCCNC(=O)C1(OCc2cc(=O)n3nc(-c4ccccc4)nc3[nH]2)CCCCC1 [48-24]
B (0.5 ≦ B < 0.001 μM),,N#Cc1cccc(OCc2cc(=O)n3nc(-c4ccccc4)nc3[nH]2)c1C1CC1 [46-2]

# Further lines, the molecule ahead of its results:
SMILES,FABP4 TdF Kd,Kd
Cc1cn(Cc2cc(=O)n3nc(-c4ccccc4)nc3[nH]2)c2cccc(Cl)c12 [1-142],B (0.5 ≦ B < 0.001 μM),
O=c1cc(CN2CCc3ccc(Br)cc32)[nH]c2nc(-c3ccccc3)nn12 [1-82],B (0.5 ≦ B < 0.001 μM),
COc1cc(CC(C)=O)ccc1OCc1cc(=O)n2nc(-c3ccccc3)nc2[nH]1 [1-72],,> 500 nM
O=C(NCCC1CC1)c1ccccc1OCc1[nH]c2nc(-c3ccccc3)nn2c(=O)c1Cl [24-14],B (0.5 ≦ B < 0.001 μM),
COc1cc2c(cc1OC)CN(Cc1cc(=O)n3nc(-c4ccccc4)nc3[nH]1)C2 [6-5],,> 500 nM
C[C@@H]1C[C@H](OCc2cc(=O)n3nc(-c4ccccc4)nc3[nH]2)CC(C)(C)C1 [1-111],B (0.5 ≦ B < 0.001 μM),
O=c1cc(COc2ccc(Br)cc2)[nH]c2nc(-c3ccccc3)nn12 [1-61],,> 500 nM
Cn1nc(C2CC2)cc1NCc1cc(=O)n2nc(-c3ccccc3)nc2[nH]1 [1-151],,> 500 nM
O=c1cc(CN2CCn3c(Br)nnc3C2)[nH]c2nc(-c3ccccc3)nn12 [1-109],,> 500 nM
Cc1cc(OCc2cc(=O)n3nc(-c4ccccc4)nc3[nH]2)ccc1C(C)C [1-70],B (0.5 ≦ B < 0.001 μM),
CC(C)c1cccc(OCc2cc(=O)n3nc(-c4ccccc4)nc3[nH]2)c1 [1-25],,> 500 nM
CC1(C)CCCC(OCc2[nH]c3nc(-c4ccccc4)nn3c(=O)c2Cl)C1 (stereo not drawn) [24-2],B (0.5 ≦ B < 0.001 μM),
Cc1ccc2ccccc2c1OCc1cc(=O)n2nc(-c3ccccc3)nc2[nH]1 [1-27],B (0.5 ≦ B < 0.001 μM),
O=c1cc(COc2cccnc2Br)[nH]c2nc(-c3ccccc3)nn12 [1-148],,> 500 nM
Cc1c(Cl)cccc1SCc1cc(=O)n2nc(-c3ccccc3)nc2[nH]1 [16-2],B (0.5 ≦ B < 0.001 μM),
O=c1cc(CN2CCC(Cc3cccc(F)c3)C2)[nH]c2nc(-c3ccccc3)nn12 (stereo not drawn) [1-89],,> 500 nM
O=c1cc(COC2CCCCC2)[nH]c2nc(-c3ccccc3)nn12 [1-21],B (0.5 ≦ B < 0.001 μM),

SMILES,FABP4 TdF Kd,Kd
O=c1cc(CN2CCCC2Cc2cccc(Cl)c2)[nH]c2nc(-c3ccccc3)nn12 (stereo not drawn) [1-57],B (0.5 ≦ B < 0.001 μM),
COc1ccccc1C1(CNC(=O)c2ccccc2OCc2[nH]c3nc(-c4ccccc4)nn3c(=O)c2Cl)CC1 [24-18],,≤ 1 nM
O=c1cc(Cn2ccc3c(Cl)cccc32)[nH]c2nc(-c3ccccc3)nn12 [1-11],B (0.5 ≦ B < 0.001 μM),
O=c1cc(CN2CCc3ccc(Cl)cc32)[nH]c2nc(-c3ccccc3)nn12 [1-83],B (0.5 ≦ B < 0.001 μM),
O=c1cc(CN2CCCC2Cc2c(F)cccc2Cl)[nH]c2nc(-c3ccccc3)nn12 (stereo not drawn) [1-131],B (0.5 ≦ B < 0.001 μM),
C[C@@H]1C[C@@H](OCc2cc(=O)n3nc(-c4ccccc4)nc3[nH]2)CC(C)(C)C1 [1-110],B (0.5 ≦ B < 0.001 μM),
CCc1ccc(OCc2cc(=O)n3nc(C)nc3[nH]2)cc1 [8-3],,> 500 nM
Cc1c(F)cccc1OCc1cc(=O)n2nc(-c3ccccc3)nc2[nH]1 [1-39],B (0.5 ≦ B < 0.001 μM),
CN(Cc1cc(=O)n2nc(-c3ccccc3)nc2[nH]1)C1CCCCC1 [1-15],,> 500 nM
Cc1c(Cl)cccc1OCc1cc(=O)n2nc(-c3cccs3)nc2[nH]1 [8-13],B (0.5 ≦ B < 0.001 μM),
CN(Cc1cc(=O)n2nc(-c3ccccc3)nc2[nH]1)c1cccc(Cl)c1C1CC1 [18-3],B (0.5 ≦ B < 0.001 μM),
O=c1cc(CN2CCn3c(nnc3C3CC3)C2)[nH]c2nc(-c3ccccc3)nn12 [1-101],,> 500 nM
O=c1c(Cl)c(CN2CCCC2Cc2ccncn2)[nH]c2nc(-c3ccccc3)nn12 (stereo not drawn) [24-6],,> 500 nM
CC1(C)CCC(OCc2cc(=O)n3nc(-c4ccccc4)nc3[nH]2)CC1 [1-147],B (0.5 ≦ B < 0.001 μM),
O=c1cc(COc2cccc3c2CCC3)[nH]c2nc(-c3ccccc3)nn12 [1-6],B (0.5 ≦ B < 0.001 μM),
CCc1ccc(OCc2cc(=O)n3nc(-c4ccncc4)nc3[nH]2)cc1 [8-10],,> 500 nM
